Test [1] deals with common cutworm (Spodoptera litura). Put plainly: Insecticidal testing against common cutworm (cabbage leaf dip, second-stage larvae). It counts as in vivo. The conditions noted are these: comparative test, procedure and conditions of Experimental Example 1. The protocol: Insecticidal Testing Against Common Cutworm (Spodoptera litura) Cabbage leaves were immersed in a liquid comprising the testing compound to a predetermined concentration for 30 seconds and air-dried. They were placed in a 7-cm polyethylene cup, and the second-stage larvae of common cutworm were left therein. The cup was placed in a constant-temperature room at 25° C., and the survival rate was investigated after 3 days. The test was carried out with two groups of 5 larvae per group. As a result, Compound No. (to be described later)

The subject of test [2] is diamondback moth (Plutella xylostella). Description: Insecticidal testing against diamondback moth (cabbage leaf dip, second-stage larvae). The class given is in vivo. The conditions noted are these: comparative test, procedure and conditions of Experimental Example 2. The protocol: Insecticidal Testing Against Diamondback Moth (Plutella xylostella) Cabbage leaves were immersed in a liquid comprising the testing compound to a predetermined concentration for 30 seconds and air-dried. They were placed in a 7-cm polyethylene cup, and the second-stage larvae of diamondback moth were left therein. The cup was placed in a constant-temperature room at 25° C., and the survival rate was investigated after 3 days. The test was carried out with two groups of 5 larvae per group. As a result, Compound No. (to be described later)

Experimental findings from US10435385B2, “Amide derivatives, process for preparation thereof and use thereof as insecticide” (MITSUI CHEMICALS, INC., priority 2004, dated 2019) are described below.

Molecules are shown by their SMILES.

For the compound `Cc1cc(C(F)(C(F)(F)F)C(F)(F)F)ccc1NC(=O)c1cccc(NC(=O)c2ccccc2I)c1` [Compound A, N-(4-heptafluoroisopropyl-2-methyl)phenyl 3-(2-iodobenzoylamino)benzamide], the insecticidal activity entry in test [1] and in test [2] was “not observed” each time.

`Cc1cc(C(F)(F)F)cc(C)c1NC(=O)c1cccc(NC(=O)c2ccccc2)c1` [Compound B, N-(2,6-dimethyl-4-trifluoromethyl)phenyl 3-(benzoylamino)benzamide]: the insecticidal activity entry in test [1] and in test [2] was “not observed” throughout.
